The source of these data is patent US20180021360A1, “Combination Therapy Regimen For Treatment Of Selected HCV Genotypes” (JANSSEN PHARMACEUTICALS, INC., priority 2016, published 2018).

The target of one series is P-gp (Homo sapiens, UniProt P08183). The conditions noted are these: cited from earlier work.
The conditions of series [1]: co-administered with SMV; cited from earlier work.
In the next series the target is BSEP (Homo sapiens, UniProt O95342). The settings on record: cited from earlier work.
Another series has as its target MRP2 (Homo sapiens, UniProt Q92887). The settings on record: cited from earlier work.
Series [2] in a line: Phase-1 drug-drug interaction study of Odalasvir, Simeprevir and Compound (III) in healthy volunteers. Format: in vivo, human. The text has this:
The following daily doses were employed:

Another series relates to CYP. In words: CYP inhibition potential. The settings on record: any CYP.
The conditions of series [3]: co-administered with SMV; cited from earlier work. This is another data set of the same source.
A short description of series [4]: Phase 2a open-label combination study, pharmacokinetics. The class given is in vivo, human. Here is the method: A randomized, Phase 2a, open-label study was carried out to evaluate the safety, pharmacokinetics and efficacy of the combination of Compound (III), Odalasvir and Simeprevir in Genotype 1 treatment-naïve subjects with chronic hepatitis C. Other treatment-naïve subjects included Genotype 2, 3, 4, 5 and 6.
The aim of the study was to determine the efficacy, pharmacokinetics (PK), and safety of Compound (II)+Odalasvir±SMV in HCV-infected subjects.
This was an open-label study evaluating various dosing regimens of Compound (III)+Odalasvir±SMV for 6-8 weeks in treatment-nave HCV-infected subjects with varying clinical characteristics (e.g., GT 1 or 3, presence/absence of compensated Child Pugh A cirrhosis). Efficacy, PK and safety evaluations were conducted during and through 24 weeks post dosing. Up to 15 cohorts were enrolled; data was generated from cohorts that have completed dosing.

A short description of series [5]: PK of single agents vs fixed dose combinations, single dose in healthy volunteers (Example 13). The conditions noted are these: mean ± SD. The class given is in vivo, human. The method, then:
SMV (100 mg), ODV (50 mg), and Compound (III) (800 mg) were administered as three different formulations or together as single doses in vivo to healthy volunteers. The arms of the study included: • Arm 1 (Reference Arm): Single oral doses of single agents, one SMV 100-mg capsule, one ODV 50-mg tablet as granule layered solid dispersion with copovidone and poloxamers, and two Compound (III) 400-mg tablets, administered together. • Arm 2: Single oral dose of fixed dose combination (FDC02): SMV 100 mg+ODV 50 mg as a spray dried solid dispersion with HPMC-AS L in a ratio ODV/HPMC-AS L 1/1 w/w+Compound (III) 800 mg • Arm 3: Single oral dose of fixed dose combination (FDC04): SMV 100 mg+ODV 50 mg as a spray dried solid dispersion with HPMC-AS L in a ratio ODV/HPMC-AS L 1/3 w/w+Compound (III) 800 mg • Arm 4: Single oral dose of fixed dose combination (FDC01): SMV 100 mg+ODV 50 mg as a spray dried solid dispersion with copovidone and poloxamers+Compound (III) 800 mg
PK parameters, including Cmax, tmax, AUClast, and AUC∞ were measured for Compound (III), ODV, SMV, and metabolites Compound A-1 and Compound A-3 for each Arm of the study. Arms that included fixed dose combinations (FDC) (Arm 2, Arm 3, and Arm 4) were then compared to a single oral dose (Arm 1, the reference Arm). Table 9, Table 10, Table 11, Table 12 and Table 13 display relevant PK parameters and FIG. 9, FIG. 10, FIG. 11, FIG. 12, and FIG. 13 depict the plasma concentration over time of SMV, ODV, Compound A-1, and Compound A-3 for each Arm of the study.

A further series addresses T1, OATP1B1 (Homo sapiens, UniProt Q9Y6L6).
T1 sequence (Q9Y6L6 1-691): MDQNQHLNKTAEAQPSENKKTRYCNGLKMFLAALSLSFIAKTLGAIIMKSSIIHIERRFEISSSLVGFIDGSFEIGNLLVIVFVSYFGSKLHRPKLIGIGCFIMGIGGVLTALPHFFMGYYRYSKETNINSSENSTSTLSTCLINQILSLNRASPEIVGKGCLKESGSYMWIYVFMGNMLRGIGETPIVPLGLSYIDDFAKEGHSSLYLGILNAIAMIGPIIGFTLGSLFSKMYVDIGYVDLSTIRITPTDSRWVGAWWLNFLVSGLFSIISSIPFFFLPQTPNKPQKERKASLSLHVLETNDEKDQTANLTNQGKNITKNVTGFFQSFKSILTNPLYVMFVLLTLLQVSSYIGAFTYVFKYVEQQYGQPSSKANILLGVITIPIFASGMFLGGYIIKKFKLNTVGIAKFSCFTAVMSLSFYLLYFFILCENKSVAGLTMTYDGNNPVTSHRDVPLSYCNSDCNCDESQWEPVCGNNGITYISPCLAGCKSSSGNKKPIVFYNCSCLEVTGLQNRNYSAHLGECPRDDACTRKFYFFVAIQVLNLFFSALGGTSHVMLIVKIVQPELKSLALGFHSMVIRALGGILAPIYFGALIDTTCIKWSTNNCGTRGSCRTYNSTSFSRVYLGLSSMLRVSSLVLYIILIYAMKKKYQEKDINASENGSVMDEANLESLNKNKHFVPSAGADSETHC
The settings on record: cited from earlier work.

Sequence of P-gp (P08183 whole entry): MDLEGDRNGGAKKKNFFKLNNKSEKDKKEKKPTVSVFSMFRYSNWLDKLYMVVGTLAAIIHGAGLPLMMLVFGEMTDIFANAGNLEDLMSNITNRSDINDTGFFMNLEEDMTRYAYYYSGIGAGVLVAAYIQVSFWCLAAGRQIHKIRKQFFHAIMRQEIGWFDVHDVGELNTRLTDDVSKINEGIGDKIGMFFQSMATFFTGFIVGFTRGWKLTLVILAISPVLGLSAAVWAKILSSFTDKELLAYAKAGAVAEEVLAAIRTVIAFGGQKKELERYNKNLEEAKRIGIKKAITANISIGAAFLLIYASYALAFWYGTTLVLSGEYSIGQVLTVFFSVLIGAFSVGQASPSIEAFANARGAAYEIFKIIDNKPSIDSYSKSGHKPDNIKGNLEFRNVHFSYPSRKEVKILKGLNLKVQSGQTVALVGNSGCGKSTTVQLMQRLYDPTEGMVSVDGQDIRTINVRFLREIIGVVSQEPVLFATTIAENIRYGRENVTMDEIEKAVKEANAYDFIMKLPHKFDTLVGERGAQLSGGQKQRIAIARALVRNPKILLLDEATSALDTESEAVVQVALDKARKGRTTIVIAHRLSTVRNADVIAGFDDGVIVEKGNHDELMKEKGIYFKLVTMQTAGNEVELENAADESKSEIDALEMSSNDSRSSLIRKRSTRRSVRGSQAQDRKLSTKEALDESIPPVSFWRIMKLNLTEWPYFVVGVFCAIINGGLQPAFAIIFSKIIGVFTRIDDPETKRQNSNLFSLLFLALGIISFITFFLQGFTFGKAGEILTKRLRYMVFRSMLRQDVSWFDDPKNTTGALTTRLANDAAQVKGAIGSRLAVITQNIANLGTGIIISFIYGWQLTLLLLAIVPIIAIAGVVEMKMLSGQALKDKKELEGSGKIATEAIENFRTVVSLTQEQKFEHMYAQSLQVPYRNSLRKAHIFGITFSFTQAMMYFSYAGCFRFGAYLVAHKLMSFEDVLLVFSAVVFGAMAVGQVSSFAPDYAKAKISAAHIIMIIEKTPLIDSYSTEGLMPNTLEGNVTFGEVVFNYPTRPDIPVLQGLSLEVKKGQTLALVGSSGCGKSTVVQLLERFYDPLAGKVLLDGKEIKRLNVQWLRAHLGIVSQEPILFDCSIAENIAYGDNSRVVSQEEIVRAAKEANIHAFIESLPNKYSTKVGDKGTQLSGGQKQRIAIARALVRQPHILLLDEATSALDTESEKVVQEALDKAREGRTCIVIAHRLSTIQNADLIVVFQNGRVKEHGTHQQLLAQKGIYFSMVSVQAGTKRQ
Sequence of BSEP (O95342 whole entry): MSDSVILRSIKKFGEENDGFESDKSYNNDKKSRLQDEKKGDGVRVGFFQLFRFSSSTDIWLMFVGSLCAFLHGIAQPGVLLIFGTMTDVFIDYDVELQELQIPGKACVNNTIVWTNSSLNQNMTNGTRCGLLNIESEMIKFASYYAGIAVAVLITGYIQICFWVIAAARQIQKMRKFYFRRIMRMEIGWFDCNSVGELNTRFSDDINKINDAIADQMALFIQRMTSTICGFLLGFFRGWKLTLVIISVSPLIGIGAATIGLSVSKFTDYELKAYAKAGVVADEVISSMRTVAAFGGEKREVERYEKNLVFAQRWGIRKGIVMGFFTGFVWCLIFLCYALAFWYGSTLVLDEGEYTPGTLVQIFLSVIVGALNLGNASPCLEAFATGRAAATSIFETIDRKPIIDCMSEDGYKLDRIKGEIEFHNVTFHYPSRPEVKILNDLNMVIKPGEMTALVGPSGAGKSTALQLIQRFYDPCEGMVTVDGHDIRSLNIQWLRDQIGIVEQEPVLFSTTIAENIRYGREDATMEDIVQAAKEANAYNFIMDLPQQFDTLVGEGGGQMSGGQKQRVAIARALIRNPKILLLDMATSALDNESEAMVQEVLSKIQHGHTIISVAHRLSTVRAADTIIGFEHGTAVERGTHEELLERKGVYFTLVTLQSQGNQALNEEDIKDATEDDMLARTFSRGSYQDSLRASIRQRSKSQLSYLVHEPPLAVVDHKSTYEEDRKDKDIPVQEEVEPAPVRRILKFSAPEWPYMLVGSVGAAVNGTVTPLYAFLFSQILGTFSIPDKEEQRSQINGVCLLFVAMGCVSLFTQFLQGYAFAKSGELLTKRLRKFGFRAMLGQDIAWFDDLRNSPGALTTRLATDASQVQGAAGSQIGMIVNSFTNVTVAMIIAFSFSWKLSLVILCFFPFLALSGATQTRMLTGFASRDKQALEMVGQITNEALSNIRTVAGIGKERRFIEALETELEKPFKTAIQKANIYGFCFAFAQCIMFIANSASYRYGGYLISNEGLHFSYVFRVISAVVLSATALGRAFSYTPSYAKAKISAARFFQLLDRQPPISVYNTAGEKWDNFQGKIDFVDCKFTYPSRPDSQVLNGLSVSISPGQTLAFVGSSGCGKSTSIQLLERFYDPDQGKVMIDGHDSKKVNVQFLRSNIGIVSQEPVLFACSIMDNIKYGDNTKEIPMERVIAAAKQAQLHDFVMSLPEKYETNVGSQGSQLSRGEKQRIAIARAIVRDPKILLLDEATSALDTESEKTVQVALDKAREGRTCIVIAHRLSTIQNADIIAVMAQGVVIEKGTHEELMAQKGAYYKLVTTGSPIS
Sequence of MRP2 (Q92887 whole entry): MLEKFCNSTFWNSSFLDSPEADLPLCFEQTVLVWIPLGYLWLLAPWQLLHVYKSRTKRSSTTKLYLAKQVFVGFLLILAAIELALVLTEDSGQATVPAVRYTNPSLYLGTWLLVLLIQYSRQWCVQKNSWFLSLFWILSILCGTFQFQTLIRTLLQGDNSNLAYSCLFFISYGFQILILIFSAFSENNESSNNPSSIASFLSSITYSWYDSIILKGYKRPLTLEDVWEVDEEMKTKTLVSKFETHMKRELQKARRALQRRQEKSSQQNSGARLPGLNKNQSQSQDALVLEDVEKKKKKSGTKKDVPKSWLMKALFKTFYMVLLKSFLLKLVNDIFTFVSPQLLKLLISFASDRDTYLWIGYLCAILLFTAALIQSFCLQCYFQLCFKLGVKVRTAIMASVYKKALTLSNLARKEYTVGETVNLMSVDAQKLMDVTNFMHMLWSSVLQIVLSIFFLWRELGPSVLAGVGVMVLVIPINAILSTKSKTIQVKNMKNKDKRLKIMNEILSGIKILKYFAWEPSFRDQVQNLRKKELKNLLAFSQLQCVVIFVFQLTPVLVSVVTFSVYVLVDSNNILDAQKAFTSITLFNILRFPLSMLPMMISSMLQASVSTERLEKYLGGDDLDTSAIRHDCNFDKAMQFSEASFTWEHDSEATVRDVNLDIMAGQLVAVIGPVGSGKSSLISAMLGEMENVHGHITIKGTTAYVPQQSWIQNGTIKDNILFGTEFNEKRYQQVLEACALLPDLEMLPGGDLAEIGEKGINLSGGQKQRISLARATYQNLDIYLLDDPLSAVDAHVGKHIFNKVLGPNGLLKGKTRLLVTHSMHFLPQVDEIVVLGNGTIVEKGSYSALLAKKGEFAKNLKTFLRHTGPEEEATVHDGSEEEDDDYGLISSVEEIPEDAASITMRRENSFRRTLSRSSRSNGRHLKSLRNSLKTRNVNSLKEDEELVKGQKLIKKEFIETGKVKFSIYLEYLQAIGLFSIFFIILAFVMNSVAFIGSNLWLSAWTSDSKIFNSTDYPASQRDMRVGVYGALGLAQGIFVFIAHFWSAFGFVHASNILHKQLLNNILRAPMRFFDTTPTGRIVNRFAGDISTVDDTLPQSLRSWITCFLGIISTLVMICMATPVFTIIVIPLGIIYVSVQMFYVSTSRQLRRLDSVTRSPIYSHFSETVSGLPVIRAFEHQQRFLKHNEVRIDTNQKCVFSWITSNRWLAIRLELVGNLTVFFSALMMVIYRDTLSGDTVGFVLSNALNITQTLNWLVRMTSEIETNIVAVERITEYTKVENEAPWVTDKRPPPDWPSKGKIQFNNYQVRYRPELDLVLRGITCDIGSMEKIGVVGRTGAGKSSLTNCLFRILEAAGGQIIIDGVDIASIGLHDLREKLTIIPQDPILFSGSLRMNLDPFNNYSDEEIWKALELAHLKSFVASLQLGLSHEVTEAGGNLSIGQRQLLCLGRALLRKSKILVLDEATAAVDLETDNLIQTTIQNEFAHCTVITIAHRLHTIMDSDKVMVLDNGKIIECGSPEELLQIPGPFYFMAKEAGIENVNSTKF

Turning to `COc1ccc2c(O[C@@H]3C[C@H]4C(=O)N[C@]5(C(=O)NS(=O)(=O)C6CC6)C[C@H]5/C=C\CCCCN(C)C(=O)[C@@H]4C3)cc(-c3nc(C(C)C)cs3)nc2c1C` [Simeprevir, reference compound], the “in vitro inhibition of P-gp” value on P-gp was “strong/moderate”. Further, in series [1], the “increase in exposure of Digoxin” value is given as 35%. Further, the “in vitro inhibition of BSEP” value at BSEP is listed as “strong/moderate”. Besides, the “in vitro inhibition of MRP2” value at MRP2 is “strong/moderate”. Moreover, in series [2] (DDI study results), the “effect of Compound (III) on SMV or ODV” value is given as “no apparent effect”; the “increase of exposure caused by Odalasvir” value amounted to 1.6 ×; the “increase of exposure, effect of the three Compounds” value was determined as 1.6 ×. Besides, the “increase of exposure on co-administration of Compounds I, II and III” value in series [2] (human in vivo study (Example 1)) turned out to be 1.6 times. Further, in series [2] (human, in vivo), the “effect of Compound (III) on bioavailability of SMV or ODV” value is on record as “does not alter” and the “increase of bioavailability of SMV by ODV” value is recorded as 1.6 fold. The CYP inhibition potential result in the series with CYP was “limited”. In [3], the “increase in Rosuvastatin exposure” value is recorded as 3 fold. Besides, in series [4] (Compound (III) 400 mg, ODV 50 mg QD, SMV 100 mg QD), the “observed exposures in Cohort 1 / group (i)” value is “higher than anticipated”. Further, in series [4] (in vivo), the “decrease of SMV exposure on reducing SMV dosing from 100 mg to 75 mg QD” value is “less than proportionally”. Besides, in [5] (Arm 1 (reference): single agents), the t1/2term is 8.3 ± 1.8 h. Also, in series [5] (Arm 2: FDC02), the t1/2term was 8.7 ± 2.3 h. In series [5] (Arm 3: FDC04 (SMV 100 mg + ODV 50 mg spray dried with HPMC-AS L 1/3 w/w + Compound (III) 800 mg)), the Cmax came to 906 ± 321 ng/mL. Also, in series [5] (Arm 3: FDC04), the AUClast worked out at 12893 ± 5828 ng·h/mL, the “AUC∞” value was 13449 ± 6015 ng·h/mL and the t1/2term is 9.1 ± 1.6 h. Further, the t1/2term in series [5] (Arm 4: FDC01) came out at 8.5 ± 1.5 h. In addition, the “in vitro inhibition of OATP1B1” value at OATP1B1 is listed as “strong in vitro inhibition”.
